Measurements as given in publication PMC3596309 (2013).

How the values were obtained:
[1] = tested on: wtTel26 (DNA, G4) TTAGGGTTAGGGTTAGGGTTAGGGTT; assay: ITC; details: 20 mM KCl; 10 mM Tris, pH 7.5, 25°C; one set of equivalent sites
[2] = tested on: scT22 (DNA, single strand) GGATGTGAGTGTGAGTGTGAGG; assay: CD titration; details: 20 mM KCl; 10 mM Tris, pH 7.5, 25°C; 4 µM DNA; two bases per metal complex; per base
[3] = tested on: Tel26 (DNA, G4) AAAGGGTTAGGGTTAGGGTTAGGGAA; assay: ITC; details: 20 mM KCl; 10 mM Tris, pH 7.5, 25°C; site 1 of 2; two sequential sites
[4] = tested on: Tel22 (DNA, G4) AGGGTTAGGGTTAGGGTTAGGG; assay: CD melting at 290 nm; details: 20 mM KCl; 10 mM Tris, pH 7.5; 4 µM DNA, complex at 2:1 molar ratio
[5] = tested on: Tel26 (DNA, G4) AAAGGGTTAGGGTTAGGGTTAGGGAA; assay: CD melting at 290 nm; details: 20 mM KCl; 10 mM Tris, pH 7.5; 4 µM DNA, complex at 2:1 molar ratio
[6] = tested on: Tel22 (DNA, G4) AGGGTTAGGGTTAGGGTTAGGG; assay: ITC; details: 20 mM KCl; 10 mM Tris, pH 7.5, 37°C; one set of equivalent sites
[7] = tested on: wtTel26 (DNA, G4) TTAGGGTTAGGGTTAGGGTTAGGGTT; assay: CD melting at 290 nm; details: 20 mM KCl; 10 mM Tris, pH 7.5; 4 µM DNA, complex at 2:1 molar ratio

- Ka [1]: 4.7 ± 1.7 × 10^5 M^-1
- Ka [2]: 270000 M⁻¹
- Ka [3]: 8.7 ± 3.3 × 10^5 M^-1
- ΔTm [4]: 10.4 °C
- ΔTm [5]: 13.8 °C
- Ka [6]: 35.1 ± 0.6 × 10^5 M^-1
- ΔTm [7]: 15.2 °C
Compound: CN(C)CCNCc1ccnc2c1ccc1cccnc12.CN(C)CCNCc1ccnc2c1ccc1cccnc12.[Ni+2]
